{
  "source": "patent US7417026B2",
  "about": "“Mobilization of hematopoietic cells” (Children's Hospital Medical Center, priority 2003, dated 2008)",
  "molecules": {"B1": {"name": "p190-RhoA-C: p190GAP fused with the RhoA C-terminal sequence, expressed from a retroviral vector (protein)", "chain": "VPLTTVVTPEKPIPIFIERCIEYIEATGLSTEGIYRVSGNKSEMESLQRQFDQDHNLDLAEKDFTVNTVAGAMKSFFSELPDPLVPYSMQIDLVEAHKINDREQKLHALKEVLKKFPKENHEVFKYVISHLNRVSHNNKVNLMTSENLSICFWPTLMRPDFSSMDALTATRSYQTIIELFIQQCPFFFYNRPISEPPGAALAPLQPWHPLSPSSPLHLLPVSHHLPSHLLQPLSPQCSHCSPLSSKPNTRCEPPQPRKQENQLSSLQARRGKKKSGCLVL", "modifications": "chimeric fusion peptide/p190RhoGAP plus c-terminus tail section of the targeted GTPase"}},
  "key": {"HSC/progenitor cells [1]": {"tested_on": "HSC/progenitor cells", "assay": "Mobilization of progenitor cells into peripheral blood, Rac2-/- mice", "type": "in vivo", "settings": "intraperitoneal injection, three doses", "description": "In FIG. 5, NSC23776 or PBS as a control was administered by intraperitoneal injection to normal mice and mice with a genetic deficiency of Rac2 (Rac2−/− mice). At the indicated time points after injection, mice were bled and analyzed for the number of progenitor cells in the peripheral blood. Three doses of drug were administered. Each point represents samples from 6 mice, mean +/− SEM. For information on how to make and use NSC23776 and other small molecule inhibitors, see copending U.S. Provisional application 60/523,599, filed Nov. 20, 2003."}, "HSC/progenitor cells [2]": {"tested_on": "HSC/progenitor cells", "assay": "Mobilization of progenitor cells into peripheral blood, normal mice", "type": "in vivo", "settings": "intraperitoneal injection, three doses", "description": "In FIG. 4, NSC23776, an inhibitor of GEF interaction with Rac proteins, or PBS as a control was administered by intraperitoneal injection to normal mice. At the indicated time points after injection, mice were bled and analyzed for the number of progenitor cells in the peripheral blood. Three doses of drug were administered. Each point represents samples from 6 mice, mean +/− SEM."}, "p42/p44": {"tested_on": "p42/p44", "settings": "neutrophils, 10 μM", "excerpt": "(§2) It was next determined whether, in a manner similar to HSC/P, p42/p44 MAPKs were regulated via Rac proteins in neutrophils."}, "ERK": {"tested_on": "ERK", "settings": "HSC/P cells, 30 μM"}, "WT neutrophils [3]": {"tested_on": "WT neutrophils", "settings": "10 μM", "excerpt": "as §2"}, "WT neutrophils [4]": {"tested_on": "WT neutrophils", "settings": "10 μM", "remark": "listed apart in the source", "quoted_text": "Neutrophil chemotaxis in response to 10 μM formyl-methionyl-leucyl-phenylalanine (fMLP) was examined in Boyden chamber assays."}, "WT HSC/P cells [5]": {"tested_on": "WT HSC/P cells", "assay": "Apoptosis of HSC/P following SCF stimulation (Annexin-V)", "type": "cell-based, mice", "settings": "concentration not given", "source_text": "By contrast, Rac2 appears to play no role in proliferation but regulated cell survival through the known anti-apoptotic protein Akt (Kennedy, et al. Genes Dev. 11, 701-13, 1997). Rac2 but not Rac1 deficiency was associated with increased frequency of both early (Annexin-V+) and late (Annexin V+/7AAD+) apoptotic cells (FIG. 2F) and expression of the Rac2 cDNA in Rac2−/− HSC/P led to a complete reversal of the apoptotic phenotype [4.4+0.8 vs. 6.6+1.3, vs. 3.1+0.7; % Annexin-V+ cells, WT vs. Rac2−/− vs. Rac−/− (Rac2+); p<0.01 Rac2−/− vs. Rac2−/− (Rac2+)]. Loss of both Rac1 and Rac2 activities was associated with a more severe apoptotic phenotype compared with deficiency of only Rac2 GTPase activity (FIG. 2D). […] The reduced Akt activation was close to normal in Rac1−/− cells."}, "WT neutrophils [6]": {"tested_on": "WT neutrophils", "settings": "10 μM", "remark": "listed apart in the source", "excerpt": "as §2"}, "WT HSC/P cells [7]": {"tested_on": "WT HSC/P cells", "assay": "Cell cycle analysis of HSC/P after SCF stimulation (cells in S+G2/M)", "type": "cell-based, mice", "settings": "30 μM", "description": "To further analyze the mechanism, by which Rac1 affects proliferation in primitive HSC/P cells, cell cycle analysis was performed after stimulation with 100 ng/ml SCF. […] In contrast, the number of Rac2−/− cells in S+G2/M phases was similar to WT cells. The delay in entry into S phase was significant by 24 hours after SCF addition and persisted at 48 hours. This defect in cell cycle progression appeared directly related to Rac1 deficiency, since expression of Rac1 protein using retrovirus-mediated gene transfer restored cycle progression in Rac1−/− cells [33+4 vs. 19+3 vs. 34+3; % cells in S+G2/M, WT vs. Rac1−/− vs. Rac1−/− (Rac1+), p<0.01 Rac1−/− vs. Rac1−/− (Rac1+)]."}, "RhoA-F30L [8]": {"biological_target": "T1, RhoA-F30L (Homo sapiens, UniProt P61586, F30L)", "T1 construct": "expressed in transfected cells", "T1 sequence (P61586 whole entry F30L)": "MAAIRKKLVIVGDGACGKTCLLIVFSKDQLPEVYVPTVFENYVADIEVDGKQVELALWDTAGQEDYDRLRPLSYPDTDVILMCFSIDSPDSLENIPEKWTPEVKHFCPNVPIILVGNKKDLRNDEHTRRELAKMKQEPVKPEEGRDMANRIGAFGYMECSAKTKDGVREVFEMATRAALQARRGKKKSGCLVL", "assay": "RhoA-F30L-induced transformation", "type": "cell-based", "settings": "for RhoA-F30L-induced transformation: high copy number retroviral vector SF91-EMCV-IRES-GFP", "source_text": "(§1) Like other cases of retrovirus-based gene transfer approach, the copy number of the introduced RhoGAP-Rho chimeras in the host cells will likely to be important for the efficacy of their application."}, "RhoA-F30L [9]": {"biological_target": "T1, RhoA-F30L", "assay": "Downregulation of RhoA-F30L biochemical activity by retrovirally expressed RhoGAP chimera", "type": "cell-based", "settings": "for biochemical activity of F30LRhoA: high copy number retroviral vector SF91-EMCV-IRES-GFP", "source_text": "as §1"}},
  "data": [
    {"molecule": "CCN(CC)CCCC(C)Nc1nc(C)cc(Nc2ccc3nc(C)cc(N)c3c2)n1", "note": "(stereo not drawn) [NSC23776]", "values": [
      {"measurement": "mobilization of HSC/progenitor cells", "setting": "HSC/progenitor cells [1]", "value": "additive effect"},
      {"measurement": "mobilization of HSC/progenitor cells", "setting": "HSC/progenitor cells [2]", "value": "does indeed lead to mobilization"}
    ]},
    {"molecule": "N#CC(=C(/N)Sc1ccccc1N)/C(C#N)=C(\\N)Sc1ccccc1N", "note": "[U0126]", "values": [
      {"measurement": "phosphorylation of p42/p44", "setting": "p42/p44", "value": "abrogates"},
      {"measurement": "ERK activation", "setting": "ERK", "value": "inhibited"},
      {"measurement": "cortical actin formation", "setting": "WT neutrophils [3]", "value": "impaired cortical actin formation"},
      {"measurement": "cell migration", "setting": "WT neutrophils [4]", "value": "significant decrease"},
      {"measurement": "increase in apoptosis", "setting": "WT HSC/P cells [5]", "value": "An increase in apoptosis was not seen"},
      {"measurement": "percentage of NBT+ cells", "setting": "WT neutrophils [6]", "value": "no change"},
      {"measurement": "number of cells in S+G2/M", "setting": "WT HSC/P cells [7]", "value": "significant reduction"}
    ]},
    {"molecule": "p190: GAP-containing protein fraction of human p190, the predominant GAP for RhoA, expressed alone", "values": [
      {"measurement": "RhoA-F30L-induced transformation", "setting": "RhoA-F30L [8]", "value": "did not affect"},
      {"measurement": "biochemical activity of F30LRhoA", "setting": "RhoA-F30L [9]", "value": "did not affect"}
    ]},
    {"molecule": "B1", "values": [
      {"measurement": "transforming activity of RhoA-F30L", "setting": "RhoA-F30L [8]; expression with MIEG3", "value": "insufficient"},
      {"measurement": "RhoA-F30L-induced transformation", "setting": "RhoA-F30L [8]", "value": "specifically decrease"},
      {"measurement": "biochemical activity of RhoA-F30L", "setting": "RhoA-F30L [9]; expression with MIEG3", "value": "insufficient"},
      {"measurement": "biochemical activity of F30LRhoA", "setting": "RhoA-F30L [9]", "value": "specifically decrease"}
    ]}
  ]
}
